Earlier results in patent US5837685A (priority 1996, dated 1998).

Columns and labels:
patients = conditions: some impairment of renal function regardless of dosage

Compound: C[C@@H]1[C@H](O)[C@@H](C)/C=C/C=C/C=C/C=C/C=C/C=C/C=C/[C@H](O[C@@H]2O[C@H](C)[C@@H](O)[C@H](N)[C@@H]2O)C[C@@H]2O[C@](O)(C[C@@H](O)C[C@@H](O)[C@H](O)CC[C@@H](O)C[C@@H](O)CC(=O)O[C@H]1C)C[C@H](O)[C@H]2C(=O)O [Amphotericin B]
- active in vitro at concentrations of (Candida): 0.01 to 2 µg/mL
- toxicity (patients): highly toxic
